Reference: PMC6544261, “A novel thermostable and halophilic thioredoxin reductase from the Red Sea Atlantis II hot brine pool” (PLoS ONE, 2019)

Target: T1, ATII-TrxR (Cupriavidus basilensis, UniProt A0A643FQQ5)
T1 construct: codon-optimised synthetic gene in pET-28a(+), His-tagged, E. coli BL21(DE3), HisTrap; dimer
T1 sequence (A0A643FQQ5 1-552): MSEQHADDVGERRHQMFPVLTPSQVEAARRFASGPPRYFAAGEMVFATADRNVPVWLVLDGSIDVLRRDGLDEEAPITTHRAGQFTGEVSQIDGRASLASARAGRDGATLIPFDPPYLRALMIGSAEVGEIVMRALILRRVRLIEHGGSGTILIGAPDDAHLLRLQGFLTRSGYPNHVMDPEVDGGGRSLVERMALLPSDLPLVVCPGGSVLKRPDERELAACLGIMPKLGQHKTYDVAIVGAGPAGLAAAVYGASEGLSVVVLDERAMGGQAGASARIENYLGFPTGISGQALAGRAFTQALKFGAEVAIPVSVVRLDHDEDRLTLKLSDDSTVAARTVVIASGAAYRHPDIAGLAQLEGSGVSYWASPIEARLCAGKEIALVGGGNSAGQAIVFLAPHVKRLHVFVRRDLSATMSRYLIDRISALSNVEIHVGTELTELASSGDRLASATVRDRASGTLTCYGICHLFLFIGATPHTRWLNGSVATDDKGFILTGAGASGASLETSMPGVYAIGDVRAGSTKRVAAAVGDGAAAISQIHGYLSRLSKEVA
Test: flavin absorbance at […] nm, co-elution of […] and […] nm peaks
Type: binding
Conditions: cofactor bound to enzyme as purified

Cc1cc2nc3c(=O)[nH]c(=O)nc-3n(C[C@H](O)[C@H](O)[C@H](O)COP(=O)(O)OP(=O)(O)OC[C@H]3O[C@@H](n4cnc5c(N)ncnc54)[C@H](O)[C@@H]3O)c2cc1C [FAD]
mol FAD/mol native enzyme: The binding of ATII-TrxR protein to the cofactor FAD was confirmed
